Columns and labels:
[1] = test system: HIV-1 strains, for e.g., 92HT599; assay: Antiviral activity: p24 estimation in MT-2 cells infected with HIV-1; type: cell-based; details: Human immunodeficiency virus 1, MT2, MT-2 cells infected with HIV-1, p24, ~96 hours
How it was run: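 MT-2 cells infected with HIV-1 (e.g. 92HT599), plated at 30,000 cells/well with compound (DMSO ≤1%) and incubated ~96 h. Supernatant p24 quantified by kit; percent inhibition relative to vehicle controls.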

Method for in vitro: On day 1 calculate the number of cells required for the assay and seed 3×10^4 cells in 200 μl per well. Weigh the compound and dissolve it in DMSO to get 10 mM stock which is further diluted to 3 mM and 1 mM. The drugs from these stocks were added to plate to get final concentration of 100 μM, 30 μM and 10 μM. […] Incubate for 4 days in 5% CO2 incubator at 37° C. On day 4, 100 μl of medium was removed from each well without disturbing the cells. Add 10 μl of MTT reagent and incubate for 4 hours at 5% CO2 incubator at 37° C. for formation of crystals. Add 200 μl of 0.1N acidic isopropanol to dissolve the crystals and read the plate at 590 nm.

COCCO[C@@H]1C[C@@H](c2nc(-c3cccc(F)c3)c[nH]2)N(C(=O)[C@]23CC[C@@H](C4(C)CC4)[C@@H]2[C@H]2CC[C@@H]4[C@@]5(C)CC[C@H](OC(=O)[C@H]6C[C@@H](C(=O)O)C6(C)C)C(C)(C)[C@@H]5CC[C@@]4(C)[C@]2(C)CC3)C1 [Compound 54, (1R,3S)-3-((((1R,3aS,5aR,5bR,7aR,9S,11aR,11bR,13aR,13bR)-3a-((2S,4R)-2-(4-(3-fluorophenyl)-1H-imidazol-2-yl)-4-(2-methoxyethoxy)pyrrolidine-1-carbonyl)-5a,5b,8,8,11a-pentamethyl-1-(1-methylcyclopropyl)icosahydro-1H-cyclopenta[a]chrysen-9-yl)oxy)carbonyl)-2,2-dimethylcyclobutane-1-carboxylic acid] showed an inhibition at 0.1 µM ([1]; 0.1 μM) of 13%, an inhibition at 1 µM ([1]; 1 μM) of 93% and a viability at 4 days, 10 μM (in vitro) of 49%. For the same molecule, the viability at 4 days, 30 μM (in vitro) was 16% and the viability at 4 days, 100 μM (in vitro) was 6%.

From patent US20170129916A1, “NOVEL BETULINIC PROLINE IMIDAZOLE DERIVATIVES AS HIV INHIBITORS” (HETERO RESEARCH FOUNDATION, priority 2014, published 2017)
